From US20040072894A1, “Stable pharmaceutical formulation comprising a HMG-CoA reductase inhibitor” (priority 1998, published 2004)

Experiment: pH of pravastatin sodium crystals kept in normal air, nitrogen or carbon dioxide atmosphere
Format: physicochemical
Procedure: Another observation was that carbon dioxide from the air can irreversibly bind to the active substance and can cause a drop of pH. This is illustrated by the following experiment: 5 g of pravastatin sodium were dissolved in 30 ml of methanol, the pH was adjusted to 10 with 3% aqueous solution of NaOH. 400 ml of ethylacetate were added and the crystals of pravastatin sodium were formed. Crystals were filtered and dried and then put into three different atmospheres: normal air, nitrogen atmosphere and carbon dioxide atmosphere. In normal air and in the nitrogen atmosphere the pH remained the same during a period of 24 hours (normal air: 9.2, nitrogen: 9.5), but in the carbon dioxide atmosphere the pH dropped in the first two minutes from 9.2 to 6.9. After 12 minutes the pH was 6.6 and after 1 hour the pH was 6.5. After that, the pH remained constant. The third observation is that a sufficient stabilization of the active substance is already obtained at a pH of at least 7.0, but a beneficially high stability is effected at a pH of at least 8.0. We have noticed that at a pH below 8 the formation of lactone has occured and also the amount of other impurities has increased. The presence of humidity in the air and a carbon dioxide-rich atmosphere makes the negative effect of a low pH even stronger. This is illustrated by the following experiment: Pravastatin was dissolved in different buffers with the pH in a range between 7 and 11 (F=phosphate, C=citrate, B=borate). The occurrence of pravastatin in lactone form and the formation of different degradation products (impurities) was measured after 1, 5, 13 and 28 days.

pH (carbon dioxide atmosphere, after 12 minutes): 6.6
pH (carbon dioxide atmosphere, after 1 hour): 6.5
pH (carbon dioxide atmosphere, after the first two minutes): 6.9
pH (carbon dioxide atmosphere, starting value): 9.2
pH (crystals in nitrogen atmosphere, remained the same during 24 hours): 9.5
pH (crystals in normal air, remained the same during 24 hours): 9.2
Structure (SMILES): CC[C@H](C)C(=O)O[C@H]1C[C@H](O)C=C2C=C[C@H](C)[C@H](CC[C@@H](O)C[C@@H](O)CC(=O)O)[C@H]21 [Pravastatin sodium, pravastatin sodium]
